{"source": "patent US20240382493A1", "about": "“METHODS FOR TREATING SYSTEMIC MASTOCYTOSIS AND GASTROINTESTINAL STROMAL TUMORS” (Blueprint Medicines Corporation, priority 2023, published 2024)", "key": {"clinical": {"assay": "clinical", "conditions": "human, in vivo, po, Tmax median treatment difference", "source_text": "(§1) Subjects with chronic, stable, severe HI with features of cirrhosis due to any etiology were enrolled, and the Child-Pugh scale was used to classify the severity of liver disease. The scale employs 5 clinical measures of liver disease. Each measure is scored 1 to 3, with 3 indicating most severe derangement. Subjects' scores of 10 to 15 on this scale are classified as having severe hepatic impairment.\n(§2) The control subjects were matched in a 1:1 ratio to subjects with severe hepatic impairment for age, body mass index (BMI), and sex variables."}, "[1]": {"conditions": "patients with severe hepatic impairment; cited from earlier work"}, "[2]": {"conditions": "cited from earlier work"}, "[3]": {"assay": "Post-hoc analysis of pooled data of 343 patients: clearance by hepatic function", "format": "in vivo, human", "conditions": "pooled data of 343 patients (284 normal, 53 mild HI, 6 moderate HI)", "text": "As per the current avapritinib labeling, no dose adjustment is recommended for patients with mild or moderate HI."}, "[4]": {"assay": "Clinical study BLU-285-0107: single 100 mg oral dose, severe hepatic impairment vs matched control subjects, plasma PK;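 on all read-outs here: severe hepatic impairment meant chronic stable cirrhosis with a Child-Pugh score of 10–15, and each such subject was paired one-to-one with a control of similar age, BMI and sex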", "conditions": "single oral 100 mg; for CL/F GeoMean / AUC(0-t) / AUC(0-inf) / Cmax / Tmax / Vd/F / half-life: total plasma avapritinib; for CLu/F GeoMean / Cumax GeoMean / AUC: unbound plasma avapritinib; for AUC(0-t) / AUC(0-inf) / AUC / Cmax / Tmax / Vd/F / half-life: human, plasma, po, 100 mg; for AUC(0-inf): AUC0-∞ GeoMean; for Cmax: Cmax GeoMean; for Tmax: Tmax median; for Vd/F: Vz/F GeoMean; for half-life: t1/2 arithmetic mean", "source_text": "as §1, §2"}}, "note": "Like-named read-outs stand apart in the source and are kept apart here."}
{"smiles": "Cn1cc(-c2cc3c(N4CCN(c5ncc([C@](C)(O)c6ccc(F)cc6)cn5)CC4)ncnn3c2)cn1", "note": "[Metabolite A]", "values": [{"measurement": "Tmax", "setting": "clinical", "value": 14.1, "unit": "h"}]}
{"smiles": "CCOc1cc2ncc(C#N)c(Nc3ccc(OCc4ccccn4)c(Cl)c3)c2cc1NC(=O)/C=C/CN(C)C", "note": "[neratinib]", "values": [{"measurement": "exposure (AUC) increased", "setting": "[1]", "value": 181, "unit": "%"}, {"measurement": "exposure (Cmax) increased", "setting": "[1]", "value": 173, "unit": "%"}]}
{"smiles": "Cn1cc(-c2cc3c(N4CCN(c5ncc([C@@](C)(O)c6ccc(F)cc6)cn5)CC4)ncnn3c2)cn1", "note": "[Metabolite B]", "values": [{"measurement": "Tmax", "setting": "clinical", "value": 80, "unit": "h"}]}
{"smiles": "N#Cc1ccccc1-c1cc(-c2ccccn2)cn(-c2ccccc2)c1=O", "note": "[perampanel]", "values": [{"measurement": "AUC higher compared to normal", "setting": "[2]; patients with mild HI", "value": 50, "unit": "%"}, {"measurement": "AUC higher compared to normal", "setting": "[2]; patients with moderate HI", "value": 2.5, "unit": "fold"}]}
{"smiles": "Cn1cc(-c2cc3c(N4CCN(c5ncc([C@@](C)(N)c6ccc(F)cc6)cn5)CC4)ncnn3c2)cn1", "note": "[Avapritinib, (S)-1-(4-fluorophenyl)-1-(2-(4-(6-(1-methyl-1H-pyrazol-4-yl)pyrrolo [2,1-f][1,2,4]triazin-4-yl)piperazin-yl)pyrimidin-5-yl)ethan-1-amine]", "values": [{"measurement": "clearance between patients with normal liver function, mild HI and moderate HI", "setting": "[3]", "value": "similar"}, {"measurement": "CL/F GeoMean", "setting": "[4]; Matched Control", "value": 15.21, "unit": "L/h"}, {"measurement": "CLu/F GeoMean", "setting": "[4]; Matched Control", "value": 1534, "unit": "L/h"}, {"measurement": "Cumax GeoMean", "setting": "[4]; Matched Control", "value": 1.197, "unit": "ng/mL"}, {"measurement": "CL/F GeoMean", "setting": "[4]; Severe HI", "value": 12.72, "unit": "L/h"}, {"measurement": "CLu/F GeoMean", "setting": "[4]; Severe HI", "value": 950.6, "unit": "L/h"}, {"measurement": "Cumax GeoMean", "setting": "[4]; Severe HI", "value": 1.293, "unit": "ng/mL"}, {"measurement": "AUC(0-t)", "setting": "[4]; AUC0-24 GeoMean, Matched Control", "value": 1610, "unit": "ng·h/mL"}, {"measurement": "AUC(0-t)", "setting": "[4]; AUC0-24 GeoMean, Severe HI", "value": 1370, "unit": "ng·h/mL"}, {"measurement": "AUC(0-t)", "setting": "[4]; AUC0-240 GeoMean, Matched Control", "value": 6030, "unit": "ng·h/mL"}, {"measurement": "AUC(0-t)", "setting": "[4]; AUC0-240 GeoMean, Severe HI", "value": 6500, "unit": "ng·h/mL"}, {"measurement": "AUC(0-inf)", "setting": "[4]; Matched Control", "value": 6570, "unit": "ng·h/mL"}, {"measurement": "AUC(0-inf)", "setting": "[4]; Severe HI", "value": 7860, "unit": "ng·h/mL"}, {"measurement": "AUC", "setting": "[4]; AUCu0-24 GeoMean, Matched Control", "value": 15.9, "unit": "ng·h/mL"}, {"measurement": "AUC", "setting": "[4]; AUCu0-24 GeoMean, Severe HI", "value": 18.3, "unit": "ng·h/mL"}, {"measurement": "AUC", "setting": "[4]; AUCu0-240 GeoMean, Matched Control", "value": 59.8, "unit": "ng·h/mL"}, {"measurement": "AUC", "setting": "[4]; AUCu0-240 GeoMean, Severe HI", "value": 87, "unit": "ng·h/mL"}, {"measurement": "AUC", "setting": "[4]; AUCu0-∞ GeoMean, Matched Control", "value": 65.2, "unit": "ng·h/mL"}, {"measurement": "AUC", "setting": "[4]; AUCu0-∞ GeoMean, Severe HI", "value": 105, "unit": "ng·h/mL"}, {"measurement": "Cmax", "setting": "[4]; Matched Control", "value": 121, "unit": "ng/mL"}, {"measurement": "Cmax", "setting": "[4]; Severe HI", "value": 96.6, "unit": "ng/mL"}, {"measurement": "Tmax", "setting": "[4]; Matched Control", "value": 2.25, "unit": "h"}, {"measurement": "Tmax", "setting": "[4]; Severe HI", "value": 1.5, "unit": "h"}, {"measurement": "Vd/F", "setting": "[4]; Matched Control", "value": 1330, "unit": "L"}, {"measurement": "Vd/F", "setting": "[4]; Severe HI", "value": 1710, "unit": "L"}, {"measurement": "half-life", "setting": "[4]; Matched Control", "value": 64.1, "unit": "h"}, {"measurement": "half-life", "setting": "[4]; Severe HI", "value": 96.6, "unit": "h"}]}
